Measurements from ChEMBL document CHEMBL5356969, “Functional evaluation of an electrophilic focused library to identify a covalent inhibitor against intrinsically disordered circadian clock transcription factors” (Bioorg Med Chem Lett, 2024).
Activity calls are given as the source filed them. The calls are words filed in the database; no cut-off is given here.

Key:
[1] = Inhibition of N-terminal (His)6/thioredoxin-tagged recombinant human BMAL1/CLOCK heterodimer expressed in Escherichia coli interaction with FAM-labeled E-box DNA (unknown origin) assessed as reduction in fluorescence intensity at 50 uM pretreated with iodoacetamide followed by compound treatment
[2] = Inhibition of N-terminal (His)6/thioredoxin-tagged recombinant human BMAL1/CLOCK heterodimer expressed in Escherichia coli interaction with 5'-FAM-labeled Per2 E-box DNA (unknown origin) assessed as reduction in fluorescence intensity incubated for 40 mins by FP assay
[3] = Thiol reactivity of compound assessed as second order rate constant at 200 uM in presence of TCEP by Ellman's method; assay type: ADME
[4] = Inhibition of N-terminal (His)6/thioredoxin-tagged recombinant human BMAL1/CLOCK heterodimer expressed in Escherichia coli interaction with FAM-labeled E-box DNA (unknown origin) assessed as reduction in fluorescence intensity upto 1000 uM
[5] = Inhibition of N-terminal (His)6/thioredoxin-tagged recombinant human BMAL1/CLOCK heterodimer expressed in Escherichia coli interaction with 5'-FAM-labeled Per2 E-box DNA (unknown origin) assessed as reduction in fluorescence intensity at 500 uM incubated for 40 mins by FP assay
[6] = Inhibition of N-terminal (His)6/thioredoxin-tagged recombinant human BMAL1/CLOCK heterodimer expressed in Escherichia coli interaction with 5'-FAM-labeled Per2 E-box DNA (unknown origin) assessed as reduction in fluorescence intensity at 500 uM incubated for 40 mins by FP assay relative to control

SMILES	K [3]	inhibition [5]	other results
O=C1C=CC(=O)c2nccnc21	–	–	inhibition [1]: inactive
C=CC(=O)Nc1cc(C(F)(F)F)cc(C(F)(F)F)c1	0.38 10^-5/M/s	–	IC50 [2]: 500 µM
O=C(CCl)Nc1cccc(C(F)(F)F)c1	3.18 10^-5/M/s	–	–
O=C(CCl)Nc1ccc(C(F)(F)F)cc1	4.47 10^-5/M/s	–	inhibition [4]: inactive
C=CC(=O)NC1CCCCC1	–	inactive	–
O=C(CCl)Nc1ccccc1	–	inactive	–
C=CC(=O)NC(C)C	–	inactive	–
O=C(CCl)NCc1ccccc1Cl	–	inactive	–
C=CC(=O)Nc1ccccc1	–	inactive	–
C=CC(=O)Nc1cccc2ccccc12	–	inactive	–
CC(C)NC(=O)CCl	–	inactive	–
NC(=O)CI [IODOACETAMIDE]	15.9 10^-5/M/s	–	inhibition [4]: inactive
C=CC(=O)NCc1ccccc1Cl	–	inactive	–
O=C(CCl)Nc1cccc2ccccc12	–	inactive	–
O=C(CCl)Nc1cc(C(F)(F)F)cc(C(F)(F)F)c1	4.61 10^-5/M/s	–	inhibition [4]: Active; inhibition [6]: 60%; inhibition [1]: inactive; IC50 [2]: 150 µM
O=C(CCl)NC1CCCCC1	–	inactive	–
O=C(CCl)Nc1ccccc1C(F)(F)F	0.63 10^-5/M/s	–	–
C=CC(=O)NCc1ccc(Cl)cc1	–	inactive	–
O=C(CCl)NCc1ccc(Cl)cc1	–	inactive	–
